Assay results: ChEMBL document CHEMBL1154744, “HIV-1 protease inhibitors with a transition-state mimic comprising a tertiary alcohol: improved antiviral activity in cells” (J Med Chem, 2010)
pEC50, pKi: −log10 of the molar value.

Assays:
[1] = tested on: Human immunodeficiency virus 1; assay: Antiviral activity against HIV1 infected in human MT4 cells assessed as inhibition of virus-induced cytopathogenicity after 6 days by XTT assay; assay type: functional, organism-based; conditions: Human immunodeficiency virus 1, MT4, 144 h
[2] = Cytotoxicity against human MT4 cells assessed as decrease in cell proliferation after 5 days by XTT assay; assay type: cell-based
Protease = Protease (Human immunodeficiency virus 1, UniProt Q9YQ12); assay: Inhibition of HIV1 protease expressed in Escherichia coli by fluorometric assay
[3] = Metabolic stability in liver microsomes assessed as intrinsic clearance; assay type: ADME, Microsome
[4] = tested on: Human immunodeficiency virus 1; assay: Antiviral activity against HIV1 with protease V32I, M46I V82A mutant by cell free assay; assay type: functional, organism-based
[5] = tested on: Human immunodeficiency virus 1; assay: Antiviral activity against HIV1 with protease G48V, L90M mutant by cell free assay; assay type: functional, organism-based
[6] = tested on: Human immunodeficiency virus 1; assay: Antiviral activity against […] HIV1 with protease A71V, I84V L90M mutant by cell free assay; assay type: functional, organism-based
[7] = target: Human immunodeficiency virus type 1 protease (Human immunodeficiency virus 1, UniProt Q72874, I84V/L63P/V82T); assay: Inhibition of HIV1 protease L63P, V82T, I84V mutant
[8] = Apparent permeability across human Caco-2 cells; assay type: ADME, cell-based
[9] = tested on: Human immunodeficiency virus 1; assay: Antiviral activity against HIV1 with protease M46I, V82F, I84V mutant by cell free assay; assay type: functional, organism-based
[10] = tested on: Human immunodeficiency virus 1; assay: Antiviral activity against HIV1 with protease V32I, M46I A71V, V82A mutant by cell free assay; assay type: functional, organism-based

Protease, sequence (Q9YQ12 whole entry): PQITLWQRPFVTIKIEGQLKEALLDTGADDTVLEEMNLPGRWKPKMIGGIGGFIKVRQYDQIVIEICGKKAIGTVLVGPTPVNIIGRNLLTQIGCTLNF
Human immunodeficiency virus type 1 protease, sequence (Q72874 entry or part of it I84V/L63P/V82T): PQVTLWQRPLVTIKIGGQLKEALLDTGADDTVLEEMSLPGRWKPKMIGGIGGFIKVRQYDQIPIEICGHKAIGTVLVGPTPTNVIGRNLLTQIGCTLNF

| SMILES | pEC50 [1] | CC50 at 120 h [2] [µM] | pKi (Protease) | other results |
| --- | --- | --- | --- | --- |
| CC(C)CN(C[C@@H](O)[C@H](Cc1ccccc1)NC(=O)O[C@H]1CO[C@H]2OCC[C@H]21)S(=O)(=O)c1ccc(N)cc1 | 8.40 |  |  |  |
| COC(=O)N[C@H](C(=O)N(Cc1ccc(Br)cc1)C[C@@](O)(Cc1ccccc1)C(=O)N[C@H]1c2ccccc2C[C@H]1O)C(C)(C)C | < 5.00 | > 10 |  |  |
| COC(=O)N[C@H](C(=O)NN(Cc1ccccc1)C[C@](O)(Cc1ccccc1)C(=O)N[C@H]1c2ccccc2C[C@H]1O)C(C)(C)C | < 5.00 |  | < 5.30 |  |
| COC(=O)N[C@H](C(=O)NN(Cc1ccc(-c2cccnc2)cc1)C[C@@](O)(Cc1ccccc1)C(=O)N[C@H]1c2ccccc2C[C@H]1O)C(C)(C)C |  | > 10 |  | clearance [3]: 154 µL/min/mg |
| COC(=O)N[C@H](C(=O)NN(Cc1ccccc1)C[C@@](O)(Cc1ccccc1)C(=O)N[C@H]1c2ccccc2C[C@H]1O)C(C)(C)C | < 5.00 |  | < 5.30 |  |
| CC(C)(C)NC(=O)[C@@H]1CN(Cc2cccnc2)CCN1C[C@@H](O)C[C@@H](Cc1ccccc1)C(=O)N[C@H]1c2ccccc2C[C@H]1O | 7.30 |  |  |  |
| COC(=O)N[C@H](C(=O)NN(CC[C@](O)(Cc1ccccc1)C(=O)N[C@H]1c2ccccc2C[C@H]1O)Cc1ccc(Br)cc1)C(C)(C)C | < 5.00 | > 10 | < 5.30 |  |
| CNC(=O)[C@@H](NC(=O)[C@](O)(CCN(Cc1ccc(Br)cc1)NC(=O)[C@@H](NC(=O)OC)C(C)(C)C)Cc1ccccc1)C(C)(C)C | < 5.00 | > 10 | 5.66 |  |
| COC(=O)N[C@H](C(=O)NN(CC[C@@](O)(Cc1ccccc1)C(=O)N[C@H]1c2ccccc2C[C@H]1O)Cc1ccc(-c2ccc(NC(C)=O)cc2)cc1)C(C)(C)C | 7.52 | > 10 | 8.74 |  |
| CNC(=O)[C@@H](NC(=O)[C@@](O)(CCN(Cc1ccc(Br)cc1)NC(=O)[C@@H](NC(=O)OC)C(C)(C)C)Cc1ccccc1)C(C)C | 6.80 | > 10 | 8.54 |  |
| COCCNC(=O)[C@@H](NC(=O)[C@@](O)(CCN(Cc1ccc(Br)cc1)NC(=O)[C@@H](NC(=O)OC)C(C)(C)C)Cc1ccccc1)C(C)C | 6.77 | > 10 | 8.49 |  |
| COC(=O)N[C@H](C(=O)NN(CC[C@@](O)(Cc1ccccc1)C(=O)N[C@H]1c2ccccc2C[C@H]1O)Cc1ccc(-c2cnn(C)c2)cc1)C(C)(C)C | 8.00 | > 10 | 8.77 |  |
| COC(=O)N[C@H](C(=O)NN(CC[C@@](O)(Cc1ccccc1)C(=O)N[C@H]1c2ccccc2C[C@H]1O)Cc1ccc(Br)cc1)C(C)(C)C | 7.40 | 7.9 | 8.54 | pEC50 [4]: 7.13; pEC50 [5]: 8.10; pEC50 [6]: 7.36; pKi [7]: 7.52; Papp [8]: 42 ×10⁻⁶ cm/s; pEC50 [9]: 6.62; clearance [3]: > 300 µL/min/mg; pEC50 [10]: 7.15 |
| COC(=O)N[C@H](C(=O)NN(CC[C@@](O)(Cc1ccccc1)C(=O)N[C@H]1c2ccccc2C[C@H]1O)Cc1ccc(-c2ccc3c(c2)OCO3)cc1)C(C)(C)C | 8.52 | 6.1 | 8.10 |  |
| CNC(=O)[C@@H](NC(=O)[C@@](O)(CCN(Cc1ccc(Br)cc1)NC(=O)[C@@H](NC(=O)OC)C(C)(C)C)Cc1ccccc1)C(C)(C)C | 7.14 | > 10 | 8.77 |  |
| CNC(=O)[C@@H](NC(=O)[C@](O)(CCN(Cc1ccc(Br)cc1)NC(=O)[C@@H](NC(=O)OC)C(C)(C)C)Cc1ccccc1)C(C)C | < 5.00 | > 10 | 5.91 |  |
| COC(=O)N[C@H](C(=O)NN(CC[C@@](O)(Cc1ccccc1)C(=O)N[C@H]1c2ccccc2C[C@H]1O)Cc1ccc(-c2ccccc2)cc1)C(C)(C)C | 8.10 | > 10 | 7.92 |  |
| COC(=O)N[C@H](C(=O)NN(CC[C@@](O)(Cc1ccccc1)C(=O)N[C@H]1c2ccccc2C[C@H]1O)Cc1ccc(-c2ccccn2)cc1)C(C)(C)C | 8.15 | > 10 |  | pEC50 [4]: 7.62; pEC50 [5]: 8.10; pEC50 [6]: 8.15; Papp [8]: 3.5 ×10⁻⁶ cm/s; pEC50 [9]: 6.89; clearance [3]: 20 µL/min/mg; pEC50 [10]: 8.22 |
| COC(=O)N[C@H](C(=O)NN(CC[C@@](O)(Cc1ccccc1)C(=O)N[C@H]1c2ccccc2C[C@H]1O)Cc1ccc(-c2cccnc2)cc1)C(C)(C)C | 8.05 | 4.9 | 8.92 | pEC50 [4]: 7.57; pEC50 [5]: 8.00; pEC50 [6]: 7.72; pKi [7]: 7.80; Papp [8]: 26 ×10⁻⁶ cm/s; pEC50 [9]: 6.22; clearance [3]: > 300 µL/min/mg; pEC50 [10]: 7.85 |
| COC(=O)N[C@H](C(=O)NN(CC[C@@](O)(Cc1ccccc1)C(=O)N[C@H]1c2ccccc2C[C@H]1O)Cc1ccc(-c2ccncc2)cc1)C(C)(C)C | 8.52 | > 10 | 8.64 |  |
| COC(=O)N[C@H](C(=O)NN(CC[C@@](O)(Cc1ccccc1)C(=O)N[C@H]1c2ccccc2C[C@H]1O)Cc1ccc(-c2cc(F)cc(F)c2)cc1)C(C)(C)C | 7.89 | > 10 | 7.96 |  |
| COC(=O)N[C@H](C(=O)NN(CC[C@@](O)(Cc1ccccc1)C(=O)N[C@H]1c2ccccc2C[C@H]1O)Cc1ccc(-c2c(C)noc2C)cc1)C(C)(C)C | 8.30 | > 10 | 8.55 |  |
| COC(=O)N[C@H](C(=O)NN(CC[C@@](O)(Cc1ccccc1)C(=O)N[C@H]1c2ccccc2C[C@H]1O)Cc1ccccc1)C(C)(C)C | 6.72 | > 10 | 8.64 |  |
| COC(=O)N[C@H](C(=O)NN(CCc1ccccc1)CC[C@@](O)(Cc1ccccc1)C(=O)N[C@H]1c2ccccc2C[C@H]1O)C(C)(C)C | 5.17 |  | 8.09 |  |
| COCCNC(=O)[C@@H](NC(=O)[C@](O)(CCN(Cc1ccc(Br)cc1)NC(=O)[C@@H](NC(=O)OC)C(C)(C)C)Cc1ccccc1)C(C)C | < 5.00 | > 10 | 5.56 |  |
| COC(=O)N[C@H](C(=O)N[C@@H](Cc1ccccc1)[C@@H](O)CN(Cc1ccc(-c2ccccn2)cc1)NC(=O)[C@@H](NC(=O)OC)C(C)(C)C)C(C)(C)C [ATAZANAVIR] |  |  | 9.30 |  |
| Cc1cccc(C)c1OCC(=O)N[C@@H](Cc1ccccc1)[C@@H](O)C[C@H](Cc1ccccc1)NC(=O)[C@H](C(C)C)N1CCCNC1=O [LOPINAVIR] | 8.00 |  |  |  |
| CC(C)c1nc(CN(C)C(=O)N[C@H](C(=O)N[C@@H](Cc2ccccc2)C[C@H](O)[C@H](Cc2ccccc2)NC(=O)OCc2cncs2)C(C)C)cs1 [RITONAVIR] | 7.30 |  |  |  |
